Consider six molecules from US11965039B2, “Compstatin analogues and their medical uses” (priority 2018, dated 2024).

Positions of bridges follow the written chain, without caps; N, C: chain ends. Non-standard residues stand in square brackets, D forms with d. Residues, ends and D or L forms follow the SMILES beside them. Trp(1-Me) = Cn1cc(C[C@H](N)C(=O)O)c2ccccc21; Sar = CNCC(=O)O Where only a bound is given, the exact number is not on record here.

Data set [1] deals with classical complement pathway. Briefly: In vitro haemolysis assay (inhibition of classical complement pathway). The class given is cell-based, human. Particulars: human serum, sensitized sheep red blood cells; Table 3, given as upper bounds; read-out: IC50, inhibition of hemolysis. In a few lines: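 Compound dilutions preincubated 15 min at room temperature with diluted human serum (titrated per batch for 70-90% maximal haemolysis), then antibody-sensitized sheep RBC (10^7/well) added for 30 min at 37 °C in Tris/casein buffer, pH 7.4. Stopped with EDTA; haemolysis read at 405 nm; IC50 by 4PL fit.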

A short description of data set [2]: Solubility test at 10 mg/mL (visual inspection and light scattering). Format: physicochemical. Particulars: for Solubility, Condition 1: Acetate pH 4; for Solubility, Condition 2: Acetate pH 5; for Solubility, Condition 3: Phosphate pH 6; for Solubility, Condition 4: Phosphate pH 7; for Solubility, Condition 5: Phosphate pH 7.5.

The term IC50 denotes the concentration at which inhibition is half-maximal. Turning to `CC[C@H](C)[C@@H]1NC(=O)[C@@H](NC(=O)[C@@H](NC(=O)[C@H](CCC(=O)O)NC(=O)[C@H](CO)NC(=O)[C@H](CCC(=O)O)NC(C)=O)[C@@H](C)CC)CSSC[C@@H](C(=O)N[C@@H](CCC(=O)O)C(=O)NCC(=O)N[C@@H](CCC(=O)O)C(N)=O)NC(=O)[C@H](CCCNC(=N)N)NC(=O)[C@H](Cc2c[nH]cn2)NC(=O)[C@H](CCC(=O)O)NC(=O)CNC(=O)[C@H](Cc2c[nH]c3ccccc23)NC(=O)[C@H](CC(=O)O)NC(=O)[C@H](CCC(N)=O)NC(=O)[C@H](Cc2c[nH]c3ccccc23)NC1=O` [Compound 36] (Ac-ESEICIWQDWGEHRCEGE-NH2; disulfide 5-15), the IC50 in data set [1] was less than 0.25 µM. In data set [2], the “Solubility, Condition 1” value is reported as “− (“−” denotes lack of solubility at the given condition, as UV absorbance at 340 nm exceeds 0.1 AU and/or it is visibly turbid or contains particles)”; the “Solubility, Condition 2” value is listed as “− (“−” denotes lack of solubility at the given condition, as UV absorbance at 340 nm exceeds 0.1 AU and/or it is visibly turbid or contains particles)”; the “Solubility, Condition 3” value is “− (“−” denotes lack of solubility at the given condition, as UV absorbance at 340 nm exceeds 0.1 AU and/or it is visibly turbid or contains particles)”; the “Solubility, Condition 4” value is “+ (“+” denotes solubility at the given condition, as determined by UV absorbance being less than 0.1 AU at 340 nm and the sample being clear when manually inspected)”. Further, the “Solubility, Condition 5” value in data set [2] is “+ (“+” denotes solubility at the given condition, as determined by UV absorbance being less than 0.1 AU at 340 nm and the sample being clear when manually inspected)”.
`CC[C@H](C)[C@@H]1NC(=O)[C@@H](NC(=O)[C@H](Cc2ccccc2)NC(=O)[C@H](CCC(=O)O)NC(=O)[C@H](CO)NC(C)=O)CSSC[C@@H](C(=O)N(C)CC(=O)NCC(=O)N[C@@H](C)C(=O)N[C@@H](CCC(=O)O)C(=O)N[C@@H](CO)C(N)=O)NC(=O)[C@H](CCCNC(=N)N)NC(=O)[C@H](Cc2c[nH]cn2)NC(=O)[C@H](CCC(=O)O)NC(=O)CNC(=O)[C@H](Cc2c[nH]c3ccccc23)NC(=O)[C@H](CC(=O)O)NC(=O)[C@H](CCC(N)=O)NC(=O)[C@H](Cc2cn(C)c3ccccc23)NC1=O` [Compound 74] (Ac-SEFCI[Trp(1-Me)]QDWGEHRC[Sar]GAES-NH2; disulfide 4-14): the IC50 in data set [1] is less than 0.1 µM. Further, in data set [2], the “Solubility, Condition 1” value is listed as “− (“−” denotes lack of solubility at the given condition, as UV absorbance at 340 nm exceeds 0.1 AU and/or it is visibly turbid or contains particles)”; the “Solubility, Condition 2” value was “+ (“+” denotes solubility at the given condition, as determined by UV absorbance being less than 0.1 AU at 340 nm and the sample being clear when manually inspected)”; the “Solubility, Condition 3” value is “+ (“+” denotes solubility at the given condition, as determined by UV absorbance being less than 0.1 AU at 340 nm and the sample being clear when manually inspected)”; the “Solubility, Condition 4” value is “+ (“+” denotes solubility at the given condition, as determined by UV absorbance being less than 0.1 AU at 340 nm and the sample being clear when manually inspected)”. Also, the “Solubility, Condition 5” value in data set [2] is “+ (“+” denotes solubility at the given condition, as determined by UV absorbance being less than 0.1 AU at 340 nm and the sample being clear when manually inspected)”.
For `CC[C@H](C)[C@H](NC(=O)[C@H](C)NC(=O)[C@H](CO)NC(=O)[C@H](CO)NC(=O)[C@H](CCC(=O)O)NC(C)=O)C(=O)N[C@H]1CSSC[C@@H](C(=O)N[C@H](C(=O)NCC(=O)N[C@@H](C)C(=O)N[C@@H](CCC(=O)O)C(=O)N[C@@H](CO)C(N)=O)[C@@H](C)O)NC(=O)[C@H](CCCNC(=N)N)NC(=O)[C@H](Cc2c[nH]cn2)NC(=O)[C@H](CCC(=O)O)NC(=O)CNC(=O)[C@H](Cc2c[nH]c3ccccc23)NC(=O)[C@H](CC(=O)O)NC(=O)[C@H](CCC(N)=O)NC(=O)[C@H](Cc2c[nH]c3ccccc23)NC(=O)[C@H]([C@@H](C)CC)NC1=O` [Compound 14] (Ac-ESSAICIWQDWGEHRCTGAES-NH2; disulfide 6-16), in data set [1], the IC50 is less than 0.1 µM. Further, in data set [2], the “Solubility, Condition 1” value was “+ (“+” denotes solubility at the given condition, as determined by UV absorbance being less than 0.1 AU at 340 nm and the sample being clear when manually inspected)”; the “Solubility, Condition 2” value was “− (“−” denotes lack of solubility at the given condition, as UV absorbance at 340 nm exceeds 0.1 AU and/or it is visibly turbid or contains particles)”; the “Solubility, Condition 3” value is “− (“−” denotes lack of solubility at the given condition, as UV absorbance at 340 nm exceeds 0.1 AU and/or it is visibly turbid or contains particles)”; the “Solubility, Condition 4” value is “+ (“+” denotes solubility at the given condition, as determined by UV absorbance being less than 0.1 AU at 340 nm and the sample being clear when manually inspected)”. Also, the “Solubility, Condition 5” value in data set [2] was “+ (“+” denotes solubility at the given condition, as determined by UV absorbance being less than 0.1 AU at 340 nm and the sample being clear when manually inspected)”.
As to `CC[C@H](C)[C@@H]1NC(=O)[C@@H](NC(=O)[C@H](Cc2ccccc2)NC(C)=O)CSSC[C@@H](C(=O)N[C@H](C(=O)NCC(=O)N[C@@H](C)C(=O)N[C@@H](CCC(=O)O)C(=O)N[C@@H](CO)C(N)=O)[C@@H](C)O)NC(=O)[C@H](CCCNC(=N)N)NC(=O)[C@H](Cc2c[nH]cn2)NC(=O)[C@H](CCC(=O)O)NC(=O)CN(C)C(=O)[C@H](Cc2c[nH]c3ccccc23)NC(=O)[C@H](CC(=O)O)NC(=O)[C@H](CCC(N)=O)NC(=O)[C@H](Cc2cn(C)c3ccccc23)NC1=O` [Compound 72, Ac-FC(1)I[1-Me-Trp]QDW[Sar]EHRC(1)TGAES-NH2] (Ac-FCI[Trp(1-Me)]QDW[Sar]EHRCTGAES-NH2; disulfide 2-12), the IC50 in data set [1] is less than 0.1 µM. In data set [2], the “Solubility, Condition 1” value was “− (“−” denotes lack of solubility at the given condition, as UV absorbance at 340 nm exceeds 0.1 AU and/or it is visibly turbid or contains particles)”; the “Solubility, Condition 2” value was “− (“−” denotes lack of solubility at the given condition, as UV absorbance at 340 nm exceeds 0.1 AU and/or it is visibly turbid or contains particles)”; the “Solubility, Condition 3” value is “+ (“+” denotes solubility at the given condition, as determined by UV absorbance being less than 0.1 AU at 340 nm and the sample being clear when manually inspected)”; the “Solubility, Condition 4” value was “+ (“+” denotes solubility at the given condition, as determined by UV absorbance being less than 0.1 AU at 340 nm and the sample being clear when manually inspected)”. The “Solubility, Condition 5” value in data set [2] was “+ (“+” denotes solubility at the given condition, as determined by UV absorbance being less than 0.1 AU at 340 nm and the sample being clear when manually inspected)”.
On to `CC[C@H](C)[C@@H]1NC(=O)[C@@H](NC(=O)[C@H](Cc2ccccc2)NC(=O)[C@H](C)NC(=O)[C@H](CO)NC(=O)CNC(=O)[C@H](CCC(=O)O)NC(C)=O)CSSC[C@@H](C(=O)N[C@H](C(=O)N[C@@H](CCC(=O)O)C(N)=O)[C@@H](C)O)NC(=O)[C@H](CCCNC(=N)N)NC(=O)[C@H](Cc2c[nH]cn2)NC(=O)[C@H](CCC(=O)O)NC(=O)CNC(=O)[C@H](Cc2c[nH]c3ccccc23)NC(=O)[C@H](CC(=O)O)NC(=O)[C@H](CCC(N)=O)NC(=O)[C@H](Cc2cn(C)c3ccccc23)NC1=O` [Compound 57] (Ac-EGSAFCI[Trp(1-Me)]QDWGEHRCTE-NH2; disulfide 6-16), for which the IC50 in data set [1] was less than 0.1 µM. Also, in data set [2], the “Solubility, Condition 1” value is recorded as “− (“−” denotes lack of solubility at the given condition, as UV absorbance at 340 nm exceeds 0.1 AU and/or it is visibly turbid or contains particles)”; the “Solubility, Condition 2” value is on record as “− (“−” denotes lack of solubility at the given condition, as UV absorbance at 340 nm exceeds 0.1 AU and/or it is visibly turbid or contains particles)”; the “Solubility, Condition 3” value is “+ (“+” denotes solubility at the given condition, as determined by UV absorbance being less than 0.1 AU at 340 nm and the sample being clear when manually inspected)”; the “Solubility, Condition 4” value was “+ (“+” denotes solubility at the given condition, as determined by UV absorbance being less than 0.1 AU at 340 nm and the sample being clear when manually inspected)”. Moreover, in data set [2], the “Solubility, Condition 5” value was “+ (“+” denotes solubility at the given condition, as determined by UV absorbance being less than 0.1 AU at 340 nm and the sample being clear when manually inspected)”.
For the molecule `CC[C@H](C)[C@@H]1NC(=O)[C@@H](NC(=O)[C@@H](NC(=O)[C@H](CCC(=O)O)NC(C)=O)[C@@H](C)CC)CSSC[C@@H](C(=O)N[C@H](C(=O)N[C@@H](CCC(=O)O)C(N)=O)[C@@H](C)O)NC(=O)[C@H](CCCNC(=N)N)NC(=O)[C@H](Cc2c[nH]cn2)NC(=O)[C@H](CCC(=O)O)NC(=O)CNC(=O)[C@H](Cc2c[nH]c3ccccc23)NC(=O)[C@H](CC(=O)O)NC(=O)[C@H](CCC(N)=O)NC(=O)[C@H](Cc2c[nH]c3ccccc23)NC1=O` [Compound 33] (Ac-EICIWQDWGEHRCTE-NH2; disulfide 3-13), the IC50 in data set [1] was less than 0.1 µM. Besides, in data set [2], the “Solubility, Condition 1” value is recorded as “− (“−” denotes lack of solubility at the given condition, as UV absorbance at 340 nm exceeds 0.1 AU and/or it is visibly turbid or contains particles)”; the “Solubility, Condition 2” value was “− (“−” denotes lack of solubility at the given condition, as UV absorbance at 340 nm exceeds 0.1 AU and/or it is visibly turbid or contains particles)”; the “Solubility, Condition 3” value was “+ (“+” denotes solubility at the given condition, as determined by UV absorbance being less than 0.1 AU at 340 nm and the sample being clear when manually inspected)”; the “Solubility, Condition 4” value is “+ (“+” denotes solubility at the given condition, as determined by UV absorbance being less than 0.1 AU at 340 nm and the sample being clear when manually inspected)”. Also, the “Solubility, Condition 5” value in data set [2] is “+ (“+” denotes solubility at the given condition, as determined by UV absorbance being less than 0.1 AU at 340 nm and the sample being clear when manually inspected)”.
